From ChEMBL document CHEMBL4699570, “Design, synthesis and biological evaluation of novel c-Met/HDAC dual inhibitors” (Bioorg Med Chem Lett, 2020)

Assays:
Histone deacetylase 1 [1] = target: T1, Histone deacetylase 1 (Homo sapiens, UniProt Q13547); experiment: Inhibition of HDAC1 (unknown origin)
[2] = target: T2, Hepatocyte growth factor receptor (Homo sapiens, UniProt P08581); experiment: Inhibition of c-MET (unknown origin)
MCF7 = experiment: Antiproliferative against human MCF-7 cells assessed as reduction in cell viability by MTT assay; format: functional, cell-based
A549 = experiment: Antiproliferative against human A549 cells assessed as reduction in cell viability by MTT assay; format: functional, cell-based
Histone deacetylase 1 [3] = target: T1, Histone deacetylase 1; conditions: dose 100.0 nM
Description: Inhibition of HDAC1 (unknown origin) at 100 nM relative to control

[4] = target: T2, Hepatocyte growth factor receptor; conditions: dose 100.0 nM
Description: Inhibition of c-MET (unknown origin) at 100 nM relative to control

T2 sequence (P08581 whole entry): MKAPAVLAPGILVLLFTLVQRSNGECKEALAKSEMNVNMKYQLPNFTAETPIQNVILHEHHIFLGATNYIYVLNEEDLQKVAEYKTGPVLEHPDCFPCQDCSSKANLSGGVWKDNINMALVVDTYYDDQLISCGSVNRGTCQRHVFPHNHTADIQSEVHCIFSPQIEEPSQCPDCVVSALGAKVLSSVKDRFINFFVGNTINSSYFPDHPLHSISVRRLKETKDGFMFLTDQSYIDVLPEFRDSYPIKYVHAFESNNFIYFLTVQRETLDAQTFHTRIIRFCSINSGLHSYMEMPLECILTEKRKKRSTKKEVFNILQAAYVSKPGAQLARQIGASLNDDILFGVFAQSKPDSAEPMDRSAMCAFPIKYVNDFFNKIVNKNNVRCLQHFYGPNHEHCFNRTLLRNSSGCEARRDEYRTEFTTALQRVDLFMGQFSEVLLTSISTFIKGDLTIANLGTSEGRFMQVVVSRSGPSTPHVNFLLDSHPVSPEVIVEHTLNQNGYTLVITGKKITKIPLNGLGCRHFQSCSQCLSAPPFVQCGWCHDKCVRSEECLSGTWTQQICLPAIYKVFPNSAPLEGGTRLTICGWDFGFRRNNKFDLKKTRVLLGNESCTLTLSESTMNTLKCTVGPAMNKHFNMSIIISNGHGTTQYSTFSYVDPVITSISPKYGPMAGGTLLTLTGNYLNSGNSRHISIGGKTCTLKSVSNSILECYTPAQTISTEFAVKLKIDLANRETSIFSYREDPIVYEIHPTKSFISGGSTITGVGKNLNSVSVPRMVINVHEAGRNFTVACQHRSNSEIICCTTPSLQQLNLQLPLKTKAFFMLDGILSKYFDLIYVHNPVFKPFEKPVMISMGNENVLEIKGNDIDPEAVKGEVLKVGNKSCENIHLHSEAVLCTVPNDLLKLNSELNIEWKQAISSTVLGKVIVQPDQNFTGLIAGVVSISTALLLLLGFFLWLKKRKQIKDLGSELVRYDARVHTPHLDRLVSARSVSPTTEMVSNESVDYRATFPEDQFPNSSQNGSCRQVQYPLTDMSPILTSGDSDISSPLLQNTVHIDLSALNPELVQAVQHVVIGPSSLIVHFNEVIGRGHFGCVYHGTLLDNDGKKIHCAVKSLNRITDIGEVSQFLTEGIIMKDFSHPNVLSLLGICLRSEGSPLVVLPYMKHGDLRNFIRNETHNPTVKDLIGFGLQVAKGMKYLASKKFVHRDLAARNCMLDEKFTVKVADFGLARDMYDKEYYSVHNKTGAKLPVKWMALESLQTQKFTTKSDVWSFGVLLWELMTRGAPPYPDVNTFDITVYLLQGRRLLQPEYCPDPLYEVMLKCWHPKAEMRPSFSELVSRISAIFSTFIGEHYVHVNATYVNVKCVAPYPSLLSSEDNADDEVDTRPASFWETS
T1 sequence (Q13547 whole entry): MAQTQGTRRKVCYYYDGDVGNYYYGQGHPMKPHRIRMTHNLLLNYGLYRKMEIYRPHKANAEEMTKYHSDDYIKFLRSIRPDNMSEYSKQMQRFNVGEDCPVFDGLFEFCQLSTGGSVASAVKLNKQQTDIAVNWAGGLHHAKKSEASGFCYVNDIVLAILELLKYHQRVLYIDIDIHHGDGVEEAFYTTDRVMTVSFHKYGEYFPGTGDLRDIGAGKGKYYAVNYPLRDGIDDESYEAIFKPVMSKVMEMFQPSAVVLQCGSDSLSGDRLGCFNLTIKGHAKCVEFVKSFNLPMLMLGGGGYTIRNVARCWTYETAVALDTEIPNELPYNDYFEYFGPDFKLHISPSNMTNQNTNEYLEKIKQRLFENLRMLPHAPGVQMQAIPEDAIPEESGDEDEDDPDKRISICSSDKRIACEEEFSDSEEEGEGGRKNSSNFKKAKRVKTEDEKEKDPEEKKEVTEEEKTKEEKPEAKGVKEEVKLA

For `COc1cc2c(Oc3ccc(NC(=O)Nc4ccc(C(F)(F)F)cc4Cl)cc3)ccnc2cc1OCCCCCCC(=O)NO`, the IC50 (Histone deacetylase 1 [1]) was 148 nM, the IC50 [2] was 41.2 nM and the IC50 (MCF7) was 500 nM. The IC50 (A549) was 970 nM, the inhibition (Histone deacetylase 1 [3]) was 28.1% and the inhibition [4] was 93.1%.

For `COc1cc2c(Oc3ccc(NC(=O)NNC(=O)c4ccccc4F)cc3)ccnc2cc1OCCCCCCC(=O)NO`, the IC50 (MCF7) was 3600 nM, the IC50 (A549) was 2420 nM and the inhibition (Histone deacetylase 1 [3]) was 28.7%. For the same molecule, the inhibition [4] was 81.4%.

`COc1cc2c(Oc3ccc(NC(=O)N/N=C/c4ccccc4F)cc3)ccnc2cc1OCCCCCCC(=O)NO` showed an IC50 (MCF7) of 1610 nM, an IC50 (A549) of 7780 nM and an inhibition (Histone deacetylase 1 [3]) of 10.4%. The inhibition [4] was 81.5%.

Molecule `COc1cc2c(Oc3ccc(NC(=O)Nc4ccc(C)cc4C)cc3)ccnc2cc1OCCCCCCC(=O)NO` has an IC50 (MCF7) of 3430 nM, an IC50 (A549) of 5490 nM and an inhibition (Histone deacetylase 1 [3]) of 26.4%. It also gave an inhibition [4] of 44.7%.

`COc1cc2c(Oc3ccc(NC(=O)Nc4ccccc4C(F)(F)F)cc3)ccnc2cc1OCCCCCCC(=O)NO` gave an IC50 (MCF7) of 1080 nM, an IC50 (A549) of 5280 nM and an inhibition (Histone deacetylase 1 [3]) of 76.6%. It also gave an inhibition [4] of 28.6%.

`COc1cc2c(Oc3ccc(NC(=O)N/N=C/c4ccc(F)cc4)cc3)ccnc2cc1OCCCCCCC(=O)NO` was tested, and the IC50 (MCF7) was 1360 nM, the IC50 (A549) was 4920 nM and the inhibition (Histone deacetylase 1 [3]) was 56.1%. The inhibition [4] was 24.2%.

`COc1ccccc1NC(=O)Nc1ccc(Oc2ccnc3cc(OCCCCCCC(=O)NO)c(OC)cc23)cc1` was tested, and the IC50 (MCF7) was 6280 nM, the IC50 (A549) was 16200 nM and the inhibition [4] was 31.9%.

For `COc1cc2c(Oc3ccc(NC(=O)C4(C(=O)Nc5ccc(F)cc5)CC4)cc3F)ccnc2cc1OCCCN1CCOCC1` [FORETINIB], the IC50 (MCF7) was 560 nM, the IC50 (A549) was 910 nM and the inhibition (Histone deacetylase 1 [3]) was 38.6%.

Molecule `COc1cc2c(Oc3ccc(NC(=O)N/N=C/c4ccccc4)cc3)ccnc2cc1OCCCCCCC(=O)NO` has an IC50 (MCF7) of 610 nM, an IC50 (A549) of 3700 nM and an inhibition [4] of 75.9%.

Molecule `COc1cc2nccc(Oc3ccc(NC(=O)C4(C(=O)Nc5ccc(F)cc5)CC4)cc3)c2cc1OC` [CABOZANTINIB] has an IC50 (MCF7) of 5400 nM, an IC50 (A549) of 7210 nM and an inhibition (Histone deacetylase 1 [3]) of 20.9%.

Molecule `COc1cc2c(Oc3ccc(NC(=O)Nc4ccc(Cl)c(C(F)(F)F)c4)cc3)ccnc2cc1OCCCCCCC(=O)NO` has an IC50 (MCF7) of 5150 nM, an IC50 (A549) of 5020 nM and an inhibition (Histone deacetylase 1 [3]) of 40.9%. The inhibition [4] was 94.8%.

Molecule `COc1cc2c(Oc3ccc(NC(=O)Nc4ccccc4)cc3)ccnc2cc1OCCCCCCC(=O)NO` has an IC50 (Histone deacetylase 1 [1]) of 75 nM, an IC50 [2] of 17 nM and an IC50 (MCF7) of 1040 nM. For the same molecule, the IC50 (A549) was 1650 nM, the inhibition (Histone deacetylase 1 [3]) was 23.1% and the inhibition [4] was 48%.

In the case of `COc1cc2c(Oc3ccc(NC(=O)Nc4ccccc4F)cc3)ccnc2cc1OCCCCCCC(=O)NO`, the IC50 (Histone deacetylase 1 [1]) is reported as 131 nM, the IC50 [2] is reported as 39.2 nM and the IC50 (MCF7) is reported as 660 nM. The IC50 (A549) was 870 nM, the inhibition (Histone deacetylase 1 [3]) was 32.1% and the inhibition [4] was 95.5%.

Molecule `COc1cc2c(Oc3ccc(NC(=O)Nc4cccc(C)c4)cc3)ccnc2cc1OCCCCCCC(=O)NO` has an IC50 (MCF7) of 1240 nM, an IC50 (A549) of 2010 nM and an inhibition (Histone deacetylase 1 [3]) of 66.6%. For the same molecule, the inhibition [4] was 25.7%.

`COc1cc2c(Oc3ccc(NC(=O)Nc4ccc(OC(F)(F)F)cc4)cc3)ccnc2cc1OCCCCCCC(=O)NO` showed an IC50 (MCF7) of 3200 nM, an IC50 (A549) of 3130 nM and an inhibition (Histone deacetylase 1 [3]) of 11.7%. The inhibition [4] was 29.8%.

`COc1cc2c(Oc3ccc(NC(=O)NCCc4ccccc4)cc3)ccnc2cc1OCCCCCCC(=O)NO` was tested, and the IC50 (MCF7) was 4120 nM, the IC50 (A549) was 9040 nM and the inhibition (Histone deacetylase 1 [3]) was 88%. The inhibition [4] was 14.3%.

Molecule `COc1cc2c(Oc3ccc(NC(=O)NNC(=O)c4ccccc4)cc3)ccnc2cc1OCCCCCCC(=O)NO` has an IC50 (MCF7) of 2450 nM, an IC50 (A549) of 2820 nM and an inhibition (Histone deacetylase 1 [3]) of 34.4%. For the same molecule, the inhibition [4] was 38.5%.

With `COc1cc2c(Oc3ccc(NC(=O)Nc4ccccc4Cl)cc3)ccnc2cc1OCCCCCCC(=O)NO` the IC50 (MCF7) was 2780 nM, the IC50 (A549) was 1910 nM and the inhibition (Histone deacetylase 1 [3]) was 45.2%. It also gave an inhibition [4] of 30.4%.

For `COc1cc2c(Oc3ccc(NC(=O)NC4CCCCC4)cc3)ccnc2cc1OCCCCCCC(=O)NO`, the IC50 (Histone deacetylase 1 [1]) was 45.2 nM, the IC50 [2] was 21.4 nM and the IC50 (MCF7) was 600 nM. It also gave an IC50 (A549) of 850 nM, an inhibition (Histone deacetylase 1 [3]) of 14.1% and an inhibition [4] of 38%.

With `COc1cc2c(Oc3ccc(NC(=O)NNC(=O)c4cccc(C)c4)cc3)ccnc2cc1OCCCCCCC(=O)NO` the IC50 (MCF7) was 5830 nM, the IC50 (A549) was 8190 nM and the inhibition (Histone deacetylase 1 [3]) was 67.6%. It also gave an inhibition [4] of 29.9%.
